Measured values taken from PubChem BioAssay (NCI).
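Briefly, cells in 96-well plates were exposed to five compound concentrations for 48 h, and endpoints were estimated by linear interpolation. TGI denotes the concentration required for complete inhibition of growth.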

What was measured:
Test in all cases: growth of human tumour cells (NCI), 48 h
786-0 renal = test system: 786-0 renal
CAKI-1 renal = test system: CAKI-1 renal
HCT-15 colon = test system: HCT-15 colon
HS 578T breast = test system: HS 578T breast
M14 melanoma = test system: M14 melanoma
MCF7 breast = test system: MCF7 breast
MDA-MB-435 = test system: MDA-MB-435
NCI-H23 lung = test system: NCI-H23 lung
NCI-H460 lung = test system: NCI-H460 lung
OVCAR-4 ovarian = test system: OVCAR-4 ovarian
OVCAR-8 ovarian = test system: OVCAR-8 ovarian
SF-268 CNS = test system: SF-268 CNS
SK-MEL-2 melanoma = test system: SK-MEL-2 melanoma
SK-MEL-28 melanoma = test system: SK-MEL-28 melanoma
T-47D breast = test system: T-47D breast
K-562 leukemia = test system: K-562 leukemia
MDA-N = test system: MDA-N
SF-539 CNS = test system: SF-539 CNS
SR leukemia = test system: SR leukemia

| Structure (SMILES) | TGI (786-0 renal) [µM] | TGI (CAKI-1 renal) [µM] | TGI (HCT-15 colon) [µM] | TGI (HS 578T breast) [µM] | TGI (M14 melanoma) [µM] | TGI (MCF7 breast) [µM] | TGI (MDA-MB-435) [µM] | TGI (NCI-H23 lung) [µM] | TGI (NCI-H460 lung) [µM] | TGI (OVCAR-4 ovarian) [µM] | TGI (OVCAR-8 ovarian) [µM] | TGI (SF-268 CNS) [µM] | TGI (SK-MEL-2 melanoma) [µM] | TGI (SK-MEL-28 melanoma) [µM] | TGI (T-47D breast) [µM] | TGI (K-562 leukemia) [µM] | TGI (MDA-N) [µM] | TGI (SF-539 CNS) [µM] | TGI (SR leukemia) [µM] |
| --- | --- | --- | --- | --- | --- | --- | --- | --- | --- | --- | --- | --- | --- | --- | --- | --- | --- | --- | --- |
| O=C1NC(N/N=C/c2ccccc2)=N/C1=C\c1ccco1 | 55.6 | > 100 | > 100 | 78.3 | > 100 | > 100 | > 100 | 95.6 | 45.5 | > 100 | 34.9 | 75.6 | > 100 | > 100 | > 100 |  |  |  |  |
| O=C(Nc1ccccc1)OCCN=C1c2ccccc2C(Br)C(Br)c2ccccc21 (stereo unspecified) | 8.18 | 16.2 | > 24.2 | 22 | 12.4 | > 31.6 | 17.1 | 25.9 | 19.5 | 21.9 | 13 | 15.6 | > 31.6 | 16.1 |  | 7.03 | 17.1 | 7.2 | 7.08 |
| C/C(=C\CO)CC/C=C(\C)CNc1c(F)c(F)c(F)c(F)c1F | > 100 | > 100 | 85.4 | 74.6 | > 100 | 70.1 | 53.8 | > 100 | > 100 | > 100 | 38 | 67.3 | 48.6 | 41.1 | > 100 | 92 |  | 40.3 | 74.9 |
| COC1(c2ccc(Cl)cc2)SC=C(C)n2c1noc2=O (stereo unspecified) | > 100 | > 100 | > 100 | > 100 | > 100 | > 100 | > 100 | > 100 | > 100 | > 100 |  | > 100 |  | > 100 |  | > 100 | > 100 |  | > 100 |
| CSCCCN(CCCSC)CCCSC | > 100 |  | > 100 |  | > 100 | > 100 | > 100 | > 100 | > 100 | > 100 | > 100 | > 100 |  | > 100 | > 100 | > 100 | > 100 | > 100 | 58.8 |
| CC(C)=C1C(=O)C[C@]2(C)C[C@H]3O[C@]3(C)CC[C@@H]3O[C@@]3(C)CC[C@@H]12 | > 50 | > 50 | > 50 | > 50 | > 50 | > 50 | > 50 | > 50 | > 50 | > 50 | > 50 | > 50 | > 50 | > 50 | > 50 | > 50 |  | > 50 | > 50 |
| COc1cc(NC(C)c2ccc3c(c2)OCCO3)cc(OC)c1OC (stereo unspecified) | > 100 | > 100 | > 100 | 52.1 | > 100 | > 100 | 32 | 64.7 | > 100 | > 100 | > 100 | > 100 | 79.8 | > 100 |  | > 100 | 30.2 | 60.4 | > 100 |
| C=CC[C@H]1O[Si](C(C)(C)C)(C(C)(C)C)[C@H](C)[C@H]1C | > 100 | > 100 | > 100 |  | > 100 | > 100 | > 100 | > 100 |  | > 100 | > 100 |  | > 100 | > 100 | > 100 | > 100 | > 100 | > 100 | > 100 |
| CC1OC(OC2C(OC(=O)[C@]34CCC(C)(C)C[C@H]3C3=CC[C@@H]5[C@@]6(C)CC[C@H](OC7OC(C(=O)O)C(O)C(O)C7O)C(C)(C)[C@@H]6CC[C@@]5(C)[C@]3(C)C[C@H]4O)OCC(O)C2O)C(O)C(O)C1OC1OCC(OC2OCC(O)C(O)C2O)C(O)C1O (stereo partly specified) | 23.3 | 21.6 | 28 | 37.9 | 11.5 | 17.6 | 17.8 | 4.87 | 32.6 | 9.31 | 32.3 | 26.3 | 11.7 | 11.7 | 26.3 | 47.8 |  |  | 53.9 |
| Cc1ccc2c(c1)[nH]c(=S)n2C=C(C(N)=O)C(N)=O | > 100 | > 100 | > 100 |  | > 100 |  | > 100 | > 100 | > 100 | > 100 | > 100 | > 100 | > 100 | > 100 | > 100 |  | > 100 | > 100 |  |
| Cc1sc(Nc2ccc(Nc3nc(-c4ccccc4)c(C)s3)cc2)nc1-c1ccccc1 | > 100 | > 100 | > 100 | > 100 | > 100 | 71.5 | > 100 | > 100 | > 100 | > 100 | > 100 | > 100 | 76.4 | > 100 | > 100 | > 100 |  | 70.6 | > 100 |
| O=[N+]([O-])c1cccc2nc3ccccc3c(NCCCCNc3c4ccccc4nc4cccc([N+](=O)[O-])c34)c12 | 0.0943 | 0.168 | 1.02 | 0.935 | 0.199 | 0.412 |  | 0.159 | 0.0574 | 0.508 | 1.09 | 0.189 | > 100 | 0.522 | 1.04 |  |  | 0.102 |  |
| Cc1ccc(Nc2nc(=O)c3c4ccccc4n(C(=O)OC(C)(C)C)c3s2)cc1 | 38.5 | 66 | > 100 | > 100 | 44.1 |  | 38.1 | 50.4 | 43.1 | > 100 | > 100 | 59.3 | 59.2 | > 100 | > 100 | > 100 |  | 79.8 | 44.9 |
